Results: PubChem BioAssay AID1963852 (Molecular Pharmacology Branch, DTP, NCI, 2024)

Tested on: 282377-053-R-J1-PDC complex spheroid viability
Assay: Anticancer human tumor 282377-053-R-J1-PDC patient-derived colon adenocarcinoma cell line growth inhibition [POLQ]
Conditions: for IC50: curve of first compound; for viability, T/C: stronger effect = lower value
How it was run: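 Three-cell-type spheroids modelling solid tumor plus stroma served as the readout system; POL inhibitors were tested individually and in combination, concentration ranges set by clinical Cmax where known.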

[1] = second compound 0.0316 µM, first compound 0.0316 µM
[2] = second compound 0.0316 µM, first compound 0.1 µM
[3] = second compound 0.0316 µM, first compound 0.316 µM
[4] = second compound 0.0316 µM, first compound 1 µM
[5] = second compound 0.0316 µM, first compound 3.16 µM
[6] = second compound 0.0316 µM, first compound 10 µM
[7] = second compound 0.1 µM, first compound 0.0316 µM
[8] = second compound 0.1 µM, first compound 0.1 µM
[9] = second compound 0.1 µM, first compound 0.316 µM
[10] = second compound 0.1 µM, first compound 1 µM
[11] = second compound 0.1 µM, first compound 3.16 µM
[12] = second compound 0.1 µM, first compound 10 µM
[13] = second compound 0.316 µM, first compound 0.0316 µM
[14] = second compound 0.316 µM, first compound 0.1 µM
[15] = second compound 0.316 µM, first compound 0.316 µM
[16] = second compound 0.316 µM, first compound 1 µM
[17] = second compound 0.316 µM, first compound 3.16 µM
[18] = second compound 0.316 µM, first compound 10 µM
[19] = second compound 1 µM, first compound 0.0316 µM
[20] = second compound 1 µM, first compound 0.1 µM
[21] = second compound 1 µM, first compound 0.316 µM
[22] = second compound 1 µM, first compound 1 µM
[23] = second compound 1 µM, first compound 3.16 µM
[24] = second compound 1 µM, first compound 10 µM
[25] = second compound 3.16 µM, first compound 0.0316 µM
[26] = second compound 3.16 µM, first compound 0.1 µM
[27] = second compound 3.16 µM, first compound 0.316 µM
[28] = second compound 3.16 µM, first compound 1 µM
[29] = second compound 3.16 µM, first compound 3.16 µM
[30] = second compound 3.16 µM, first compound 10 µM
[31] = second compound 10 µM, first compound 0.0316 µM
[32] = second compound 10 µM, first compound 0.1 µM
[33] = second compound 10 µM, first compound 0.316 µM
[34] = second compound 10 µM, first compound 1 µM
[35] = second compound 10 µM, first compound 3.16 µM
[36] = second compound 10 µM, first compound 10 µM
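Also: spheroids exposed to compounds for seven days.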
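For viability, T/C in this document: 100% = DMSO vehicle control viability.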

CCc1cc2c(N3CCc4c(cc(Cn5ccnc5)cc4-c4cn(C)nc4C(F)(F)F)C3=O)cc(C)nc2c(OC)n1 + COC1C(OC(N)=O)C(O)C(Oc2ccc3c(O)c(NC(=O)c4ccc(O)c(CC=C(C)C)c4)c(=O)oc3c2C)OC1(C)C
IC50 (second compound 0.0316 µM): > 10 µM
IC50 (second compound 0.1 µM): > 10 µM
IC50 (second compound 0.316 µM): > 10 µM
IC50 (second compound 1 µM): > 10 µM
IC50 (second compound 3.16 µM): > 10 µM
IC50 (second compound 10 µM): > 10 µM
viability, T/C [1]: 130%
viability, T/C [2]: 152%
viability, T/C [3]: 172%
viability, T/C [4]: 158%
viability, T/C [5]: 123%
viability, T/C [6]: 74.5%
viability, T/C [7]: 120%
viability, T/C [8]: 157%
viability, T/C [9]: 124%
viability, T/C [10]: 131%
viability, T/C [11]: 134%
viability, T/C [12]: 68.9%
viability, T/C [13]: 132%
viability, T/C [14]: 126%
viability, T/C [15]: 132%
viability, T/C [16]: 140%
viability, T/C [17]: 119%
viability, T/C [18]: 67.2%
viability, T/C [19]: 141%
viability, T/C [20]: 128%
viability, T/C [21]: 143%
viability, T/C [22]: 158%
viability, T/C [23]: 108%
viability, T/C [24]: 80.7%
viability, T/C [25]: 109%
viability, T/C [26]: 125%
viability, T/C [27]: 133%
viability, T/C [28]: 126%
viability, T/C [29]: 128%
viability, T/C [30]: 73.8%
viability, T/C [31]: 111%
viability, T/C [32]: 109%
viability, T/C [33]: 114%
viability, T/C [34]: 143%
viability, T/C [35]: 123%
viability, T/C [36]: 80%

COc1cc2cc(C(=O)CCC(=O)O)sc2cc1OC + Cc1cccc(N(C)C(=O)C2C(O)CCN2c2nc(C)cc(C(F)(F)F)c2C#N)c1
IC50 (second compound 0.0316 µM): > 10 µM
IC50 (second compound 0.1 µM): > 10 µM
IC50 (second compound 0.316 µM): > 10 µM
IC50 (second compound 1 µM): > 10 µM
IC50 (second compound 3.16 µM): > 10 µM
IC50 (second compound 10 µM): > 10 µM
viability, T/C [1]: 106%
viability, T/C [2]: 112%
viability, T/C [3]: 101%
viability, T/C [4]: 106%
viability, T/C [5]: 109%
viability, T/C [6]: 104%
viability, T/C [7]: 112%
viability, T/C [8]: 107%
viability, T/C [9]: 102%
viability, T/C [10]: 95.8%
viability, T/C [11]: 115%
viability, T/C [12]: 89.4%
viability, T/C [13]: 119%
viability, T/C [14]: 107%
viability, T/C [15]: 113%
viability, T/C [16]: 97%
viability, T/C [17]: 107%
viability, T/C [18]: 95.1%
viability, T/C [19]: 116%
viability, T/C [20]: 103%
viability, T/C [21]: 107%
viability, T/C [22]: 107%
viability, T/C [23]: 103%
viability, T/C [24]: 105%
viability, T/C [25]: 106%
viability, T/C [26]: 106%
viability, T/C [27]: 103%
viability, T/C [28]: 108%
viability, T/C [29]: 113%
viability, T/C [30]: 108%
viability, T/C [31]: 107%
viability, T/C [32]: 112%
viability, T/C [33]: 117%
viability, T/C [34]: 100%
viability, T/C [35]: 122%
viability, T/C [36]: 109%
